Legend:
[1] = target: T1, Serine/threonine-protein kinase 17B (Homo sapiens, UniProt O94768); assay: Inhibition of DRAK2 (unknown origin) expressed in HEK293 cells by NanoLuc-luciferase reporter based intracellular ATP competitiveness assay; assay type: cell-based
T1 sequence (O94768 whole entry): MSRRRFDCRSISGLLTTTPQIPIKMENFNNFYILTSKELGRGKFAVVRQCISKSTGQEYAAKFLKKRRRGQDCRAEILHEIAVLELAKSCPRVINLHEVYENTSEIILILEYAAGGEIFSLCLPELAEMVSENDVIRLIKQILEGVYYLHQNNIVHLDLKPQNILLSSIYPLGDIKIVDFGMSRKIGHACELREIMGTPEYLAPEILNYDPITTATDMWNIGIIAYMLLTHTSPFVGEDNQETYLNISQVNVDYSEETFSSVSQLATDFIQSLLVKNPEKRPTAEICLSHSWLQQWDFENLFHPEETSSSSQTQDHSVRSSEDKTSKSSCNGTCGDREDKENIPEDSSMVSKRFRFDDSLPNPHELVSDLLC

[2] = target: Serine/threonine-protein kinase pim-1 (Homo sapiens, UniProt P11309); assay: Inhibition of PIM1 (unknown origin) by [33P]-ATP filter binding kinase assay
MCF7 = assay: Cytotoxicity in human MCF7 cells assessed as reduction in cell viability incubated for 72 hrs by MTS assay; assay type: functional, cell-based; conditions: MCF7, 72 h
[3] = target: T2, Serine/threonine-protein kinase 17A (Homo sapiens, UniProt Q9UEE5); assay: Inhibition of DRAK1 (unknown origin) expressed in HEK293 cells by NanoLuc-luciferase reporter based intracellular ATP competitiveness assay; assay type: cell-based
T2 sequence (Q9UEE5 whole entry): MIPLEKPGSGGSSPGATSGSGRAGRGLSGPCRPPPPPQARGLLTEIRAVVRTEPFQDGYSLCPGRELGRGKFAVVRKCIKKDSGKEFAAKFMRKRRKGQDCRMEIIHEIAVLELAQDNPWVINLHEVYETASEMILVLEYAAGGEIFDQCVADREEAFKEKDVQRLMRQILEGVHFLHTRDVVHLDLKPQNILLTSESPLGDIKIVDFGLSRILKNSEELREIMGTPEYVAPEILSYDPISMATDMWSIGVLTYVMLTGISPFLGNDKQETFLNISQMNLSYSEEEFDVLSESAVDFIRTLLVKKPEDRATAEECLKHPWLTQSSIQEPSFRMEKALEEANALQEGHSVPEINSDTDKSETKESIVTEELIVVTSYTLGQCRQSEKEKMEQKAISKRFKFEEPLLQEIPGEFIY

MV4-11 = assay: Cytotoxicity in human MV4-11 cells assessed as reduction in cell viability incubated for 72 hrs by MTS assay; assay type: functional, cell-based; conditions: MV4-11, 72 h
[4] = target: T3, Mitogen-activated protein kinase kinase kinase kinase 2 (Homo sapiens, UniProt Q12851); assay: Inhibition of GCK (unknown origin) by [33P]-ATP filter binding kinase assay
T3 sequence (Q12851 whole entry): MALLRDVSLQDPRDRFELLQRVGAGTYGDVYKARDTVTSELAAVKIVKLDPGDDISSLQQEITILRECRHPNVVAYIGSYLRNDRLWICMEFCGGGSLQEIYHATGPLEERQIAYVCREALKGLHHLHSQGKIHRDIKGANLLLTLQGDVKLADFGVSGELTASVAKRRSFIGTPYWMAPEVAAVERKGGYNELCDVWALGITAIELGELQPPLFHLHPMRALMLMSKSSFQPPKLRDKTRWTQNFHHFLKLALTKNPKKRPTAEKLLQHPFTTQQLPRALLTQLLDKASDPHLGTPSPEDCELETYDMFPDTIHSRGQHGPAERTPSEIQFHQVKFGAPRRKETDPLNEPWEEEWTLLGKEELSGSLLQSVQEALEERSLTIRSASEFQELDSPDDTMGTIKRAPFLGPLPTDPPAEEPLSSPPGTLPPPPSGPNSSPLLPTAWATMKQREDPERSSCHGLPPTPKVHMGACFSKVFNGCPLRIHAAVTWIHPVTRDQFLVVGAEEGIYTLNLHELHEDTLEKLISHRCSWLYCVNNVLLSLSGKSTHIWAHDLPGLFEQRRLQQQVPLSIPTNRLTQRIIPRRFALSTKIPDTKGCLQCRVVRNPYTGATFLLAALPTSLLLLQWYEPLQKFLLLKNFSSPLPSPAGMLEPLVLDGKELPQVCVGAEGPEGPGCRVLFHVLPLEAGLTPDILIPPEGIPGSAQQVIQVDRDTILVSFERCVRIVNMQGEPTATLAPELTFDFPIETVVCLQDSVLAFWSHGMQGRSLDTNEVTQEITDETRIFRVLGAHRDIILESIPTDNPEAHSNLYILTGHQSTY

[5] = target: Serine/threonine-protein kinase pim-3 (Homo sapiens, UniProt Q86V86); assay: Inhibition of PIM3 (unknown origin) assessed as residual enzyme activity at 1 uM by [33P]-ATP filter binding kinase assay relative to control
[6] = target: T4, Mitogen-activated protein kinase 15 (Homo sapiens, UniProt Q8TD08); assay: Inhibition of ERK8 (unknown origin) by [33P]-ATP filter binding kinase assay
T4 sequence (Q8TD08 whole entry): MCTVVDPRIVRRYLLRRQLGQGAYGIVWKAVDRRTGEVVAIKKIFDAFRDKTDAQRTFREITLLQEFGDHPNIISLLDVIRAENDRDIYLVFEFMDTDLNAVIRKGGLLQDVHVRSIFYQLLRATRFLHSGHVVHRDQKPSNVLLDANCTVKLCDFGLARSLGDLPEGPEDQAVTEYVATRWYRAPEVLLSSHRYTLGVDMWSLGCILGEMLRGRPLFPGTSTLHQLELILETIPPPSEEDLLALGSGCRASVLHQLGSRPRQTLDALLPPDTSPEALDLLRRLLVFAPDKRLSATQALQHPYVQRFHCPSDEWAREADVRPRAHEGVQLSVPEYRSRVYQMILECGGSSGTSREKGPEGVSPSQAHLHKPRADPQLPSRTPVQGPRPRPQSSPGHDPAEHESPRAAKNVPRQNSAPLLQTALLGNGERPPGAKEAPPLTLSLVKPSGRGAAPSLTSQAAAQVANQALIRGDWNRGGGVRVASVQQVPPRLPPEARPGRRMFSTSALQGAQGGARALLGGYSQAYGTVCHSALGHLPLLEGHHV

[7] = target: Serine/threonine-protein kinase SIK3 (Homo sapiens, UniProt Q9Y2K2); assay: Inhibition of SIK3 (unknown origin) by [33P]-ATP filter binding kinase assay
SK-BR-3 = assay: Cytotoxicity in human SK-BR-3 cells assessed as reduction in cell viability incubated for 72 hrs by MTS assay; assay type: functional, cell-based; conditions: SK-BR-3, 72 h
[8] = target: Mitogen-activated protein kinase kinase kinase 9 (Homo sapiens, UniProt P80192); assay: Inhibition of MLK1 (unknown origin) assessed as residual enzyme activity at 50 uM by [33P]-ATP filter binding kinase assay relative to control
[9] = target: Serine/threonine-protein kinase DCLK3 (Homo sapiens, UniProt Q9C098); assay: Binding affinity to wild-type human partial length DCAMKL3 (E140 to V628 residues) expressed in bacterial expression system by active-site directed competition binding assay based Kinomescan method
Serine/threonine-protein kinase DCLK3, sequence (Q9C098 whole entry, the tested form may be a part): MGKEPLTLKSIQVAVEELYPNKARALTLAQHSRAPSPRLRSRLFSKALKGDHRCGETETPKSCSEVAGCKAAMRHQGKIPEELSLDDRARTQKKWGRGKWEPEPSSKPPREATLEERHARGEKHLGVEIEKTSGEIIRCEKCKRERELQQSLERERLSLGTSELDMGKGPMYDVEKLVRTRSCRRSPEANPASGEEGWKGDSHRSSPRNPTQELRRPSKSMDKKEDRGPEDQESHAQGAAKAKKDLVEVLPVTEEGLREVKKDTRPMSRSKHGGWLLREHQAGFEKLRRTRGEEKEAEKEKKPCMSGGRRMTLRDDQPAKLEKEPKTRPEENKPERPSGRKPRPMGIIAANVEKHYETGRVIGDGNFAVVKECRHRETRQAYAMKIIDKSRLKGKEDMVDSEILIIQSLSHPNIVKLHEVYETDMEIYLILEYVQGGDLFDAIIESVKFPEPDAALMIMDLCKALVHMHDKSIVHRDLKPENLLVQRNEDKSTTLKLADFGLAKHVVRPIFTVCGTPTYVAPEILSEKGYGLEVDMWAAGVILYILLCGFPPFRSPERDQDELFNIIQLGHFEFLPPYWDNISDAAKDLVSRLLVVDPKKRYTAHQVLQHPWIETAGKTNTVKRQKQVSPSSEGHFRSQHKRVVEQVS

Serine/threonine-protein kinase pim-1, sequence (P11309 whole entry): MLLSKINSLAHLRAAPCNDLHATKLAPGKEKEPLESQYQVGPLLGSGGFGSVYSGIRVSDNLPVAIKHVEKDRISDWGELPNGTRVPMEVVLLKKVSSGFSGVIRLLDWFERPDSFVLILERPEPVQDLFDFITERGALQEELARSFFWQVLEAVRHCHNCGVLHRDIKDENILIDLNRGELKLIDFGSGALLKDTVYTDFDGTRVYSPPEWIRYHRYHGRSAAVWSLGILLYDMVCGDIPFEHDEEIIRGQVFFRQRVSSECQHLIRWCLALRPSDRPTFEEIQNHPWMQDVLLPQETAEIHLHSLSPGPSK
Serine/threonine-protein kinase SIK3, sequence (Q9Y2K2 whole entry): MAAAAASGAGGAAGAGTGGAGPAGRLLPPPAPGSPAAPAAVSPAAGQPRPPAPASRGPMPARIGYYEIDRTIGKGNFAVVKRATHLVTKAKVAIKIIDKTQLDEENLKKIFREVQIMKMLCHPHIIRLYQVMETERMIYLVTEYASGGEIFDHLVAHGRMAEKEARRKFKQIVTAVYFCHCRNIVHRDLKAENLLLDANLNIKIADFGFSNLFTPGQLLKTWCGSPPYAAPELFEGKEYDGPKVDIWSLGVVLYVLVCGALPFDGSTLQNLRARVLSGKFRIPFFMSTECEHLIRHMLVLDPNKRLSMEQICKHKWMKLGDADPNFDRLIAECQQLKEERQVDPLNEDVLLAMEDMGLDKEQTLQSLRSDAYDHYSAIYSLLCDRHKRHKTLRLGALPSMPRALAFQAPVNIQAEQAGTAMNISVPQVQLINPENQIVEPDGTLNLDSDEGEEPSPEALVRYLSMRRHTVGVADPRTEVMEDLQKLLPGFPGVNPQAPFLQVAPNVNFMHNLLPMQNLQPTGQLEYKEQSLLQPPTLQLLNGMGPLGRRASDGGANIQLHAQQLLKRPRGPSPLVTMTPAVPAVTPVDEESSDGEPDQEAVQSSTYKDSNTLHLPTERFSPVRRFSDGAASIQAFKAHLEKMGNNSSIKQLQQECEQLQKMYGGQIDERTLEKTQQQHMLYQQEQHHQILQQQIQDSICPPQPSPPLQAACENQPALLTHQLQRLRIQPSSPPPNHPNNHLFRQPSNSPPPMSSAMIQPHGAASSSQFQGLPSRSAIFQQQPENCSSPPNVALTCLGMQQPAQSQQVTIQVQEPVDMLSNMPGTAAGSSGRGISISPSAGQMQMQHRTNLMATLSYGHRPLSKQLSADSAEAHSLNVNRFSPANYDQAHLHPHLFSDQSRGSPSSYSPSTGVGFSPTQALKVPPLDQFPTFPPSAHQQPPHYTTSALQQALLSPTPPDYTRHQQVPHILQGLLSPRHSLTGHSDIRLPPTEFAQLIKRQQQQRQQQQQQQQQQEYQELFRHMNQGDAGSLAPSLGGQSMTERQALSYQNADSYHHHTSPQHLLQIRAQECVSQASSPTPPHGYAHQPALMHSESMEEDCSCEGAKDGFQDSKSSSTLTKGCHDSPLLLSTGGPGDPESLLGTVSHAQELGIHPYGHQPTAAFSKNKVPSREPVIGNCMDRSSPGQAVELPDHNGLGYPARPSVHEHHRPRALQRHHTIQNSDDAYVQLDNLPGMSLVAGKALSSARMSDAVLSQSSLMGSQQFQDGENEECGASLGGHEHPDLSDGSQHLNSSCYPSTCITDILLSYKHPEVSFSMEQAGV
Mitogen-activated protein kinase kinase kinase 9, sequence (P80192 whole entry, looked up, the tested form may be a part): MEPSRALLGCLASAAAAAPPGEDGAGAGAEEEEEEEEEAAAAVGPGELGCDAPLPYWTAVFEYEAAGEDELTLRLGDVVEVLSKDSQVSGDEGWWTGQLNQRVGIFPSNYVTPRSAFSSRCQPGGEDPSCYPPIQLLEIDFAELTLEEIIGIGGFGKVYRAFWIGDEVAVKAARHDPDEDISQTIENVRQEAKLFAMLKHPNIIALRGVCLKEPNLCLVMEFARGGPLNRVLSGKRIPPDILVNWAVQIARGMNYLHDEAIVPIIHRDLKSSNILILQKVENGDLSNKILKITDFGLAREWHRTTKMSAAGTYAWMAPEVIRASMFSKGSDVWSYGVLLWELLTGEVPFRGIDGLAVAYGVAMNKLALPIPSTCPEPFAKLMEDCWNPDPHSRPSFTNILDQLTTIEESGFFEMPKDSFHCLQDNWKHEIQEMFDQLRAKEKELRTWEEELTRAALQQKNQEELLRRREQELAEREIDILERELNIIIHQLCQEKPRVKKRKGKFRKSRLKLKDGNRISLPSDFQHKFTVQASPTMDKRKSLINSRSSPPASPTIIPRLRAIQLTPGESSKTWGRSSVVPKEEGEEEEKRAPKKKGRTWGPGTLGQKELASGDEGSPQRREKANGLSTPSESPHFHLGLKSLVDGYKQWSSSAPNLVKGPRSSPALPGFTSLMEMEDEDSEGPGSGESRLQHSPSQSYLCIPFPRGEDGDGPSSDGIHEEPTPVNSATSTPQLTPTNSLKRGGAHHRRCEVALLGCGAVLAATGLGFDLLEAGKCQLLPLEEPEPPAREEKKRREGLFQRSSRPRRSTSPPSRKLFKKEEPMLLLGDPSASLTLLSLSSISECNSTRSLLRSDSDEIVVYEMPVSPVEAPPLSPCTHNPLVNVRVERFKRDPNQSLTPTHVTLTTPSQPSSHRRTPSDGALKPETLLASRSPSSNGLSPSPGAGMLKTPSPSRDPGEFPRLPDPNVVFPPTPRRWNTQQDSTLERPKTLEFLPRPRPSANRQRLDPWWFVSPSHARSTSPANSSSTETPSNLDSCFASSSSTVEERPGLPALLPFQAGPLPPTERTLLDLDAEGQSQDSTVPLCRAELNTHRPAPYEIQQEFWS

## COc1cc(Br)cc2[nH]cc(-c3cnc(-c4ccc[nH]4)o3)c12
[1]
  IC50: 8.3 µM
[2]
  IC50: 900 nM
MCF7
  IC50: 3.9 µM
[3]
  IC50: > 10 µM
MV4-11
  IC50: > 10 µM
[4]
  IC50: 1200 nM
[5]
  Activity: 29%
[6]
  IC50: 46 µM
[7]
  IC50: > 10 µM
SK-BR-3
  IC50: > 10 µM

## COc1cc2c(-c3cnc(-c4ccc[nH]4)o3)c[nH]c2cc1Br
[1]
  IC50: 0.5 µM
[8]
  Activity: 5%
[2]
  IC50: 200 nM
MCF7
  IC50: 8.5 µM
MV4-11
  IC50: 4.4 µM
[4]
  IC50: 600 nM
[5]
  Activity: 7%
[6]
  IC50: 1 µM
[7]
  IC50: 1.2 µM
[9]
  Kd: 1800 nM
SK-BR-3
  IC50: > 10 µM

## COc1cc(Br)cc2[nH]cc(-c3cnc(-c4ccc(Br)[nH]4)o3)c12
[1]
  IC50: 3.3 µM
[2]
  IC50: > 10000 nM
MCF7
  IC50: > 10 µM
[3]
  IC50: > 10 µM
MV4-11
  IC50: > 10 µM
[4]
  IC50: > 10000 nM
[6]
  IC50: > 10 µM
[7]
  IC50: > 10 µM
SK-BR-3
  IC50: > 10 µM

## COc1cc(Br)cc2[nH]cc(-c3oc(-c4ccc[nH]4)nc3I)c12
[1]
  IC50: > 10 µM
[2]
  IC50: > 10000 nM
MCF7
  IC50: > 10 µM
[3]
  IC50: > 10 µM
MV4-11
  IC50: > 10 µM
[4]
  IC50: > 10000 nM
[6]
  IC50: > 10 µM
[7]
  IC50: > 10 µM
SK-BR-3
  IC50: > 10 µM

Reference: ChEMBL document CHEMBL4334516, “Kinase Chemodiversity from the Arctic: The Breitfussins” (J Med Chem, 2019)
